How the values were obtained:
Assay type in all cases: biochemical
Human TYK2 = Human TYK2 (Homo sapiens (Human), UniProt P29597); experiment: In vitro kinase inhibition test, TYK2 (33P-ATP filter scintillation); conditions: compound at 1 uM; read-out: TYK2 kinase-phosphorylation inhibitory level (% inhibition)
Method: (§1) 1. In Vitro Kinase Inhibition Test
(§2) Kinases used were human-derived JAK1, JAK2, JAK3, and TYK2 (Millipore, Germany). Each of these kinases was diluted with a suitable buffer solution as described below, and then mixed with reagents.
(§3) 3-morpholinopropane-1-sulfonic acid (MOPS) and EDTA were dissolved in distilled water at a concentration of 20 mM and 1 mM, respectively, and 100 uL of β-mercaptoethanol, 10 uL of Brij-35™, 5 mL of glycerol, and 100 mg of bovine serum albumin (BSA), each per 100 mL of the solution, were added to the solution, thereby preparing a JAK2, JAK3, and TYK2 dilution buffer solution.
(§4) Each compound was dissolved in a 100% DMSO solution at a 50 uM concentration. This solution was reacted with reagents in wells on a 96-well plate to reach a final concentration of 1 uM. Detailed experimental methods for each kinase are described below.
(§5) After reaction for about 40 minutes at room temperature, the reaction was stopped by adding 5 uL of a 3% (v/v) phosphoric acid solution.
(§6) In Tables 5 and 6, the numbers in the “Example” column, which are identification numbers of the examples, indicate the compounds synthesized in the corresponding examples, the values in the “JAK1”, “JAK2”, “JAK3”, and “TYK2” columns represent kinase-phosphorylation inhibitory levels as a percentage (%) of the compounds synthesized in the corresponding examples at a 1 uM concentration. In Tables 5 and 6, negative values substantially indicate no inhibitory effect.
(§7) The inhibitory levels (% inhibition) represent a percentage of reduction in phosphorylation activity in each test group with respect to the phosphorylation activity of a corresponding kinase in a negative control group lacking any of the compounds synthesized in the examples. % inhibition=[(Scintillation value of Test compound non-treatment group−Scintillation value of Test compound treatment group)/(Scintillation value of Test compound non-treatment group)]×100

Human JAK3 = Human JAK3 (Homo sapiens (Human), UniProt P52333); experiment: In vitro kinase inhibition test, JAK3 (33P-ATP filter scintillation); conditions: compound at 1 uM; read-out: JAK3 kinase-phosphorylation inhibitory level (% inhibition)
Method: as §1, §2, §3, §4, §5, §6, §7

Human JAK2 = Human JAK2 (Homo sapiens (Human), UniProt O60674); experiment: In vitro kinase inhibition test, JAK2 (33P-ATP filter scintillation); conditions: compound at 1 uM; read-out: JAK2 kinase-phosphorylation inhibitory level (% inhibition)
Method: as §1, §2, §3, §4, §5, §6, §7

Human JAK1 = Human JAK1 (Homo sapiens (Human), UniProt P23458); experiment: In vitro kinase inhibition test, JAK1 (33P-ATP filter scintillation); conditions: compound at 1 uM; read-out: JAK1 kinase-phosphorylation inhibitory level (% inhibition)
Method: as §1, §2
Tris(hydroxymethyl)aminomethane (TRIS) and ethylenediaminetetraacetic acid (EDTA) were dissolved in distilled water at a concentration of 20 mM and 0.2 mM, respectively, and 100 uL of β-mercaptoethanol, 10 uL of Brij-35™, and 5 mL of glycerol, each per 100 mL of the solution, were added to the solution, thereby preparing a JAK1 dilution buffer solution.
as §4
After reaction for about 40 minutes at room temperature, the reaction was stopped by adding 5 uL of a 3% (v/v) phosphoric acid solution. […] The methanol drying is a drying process using an azeotropic effect, wherein methanol is added into an aqueous solution for drying.
as §6, §7

Sequence of Human TYK2 (P29597 whole entry): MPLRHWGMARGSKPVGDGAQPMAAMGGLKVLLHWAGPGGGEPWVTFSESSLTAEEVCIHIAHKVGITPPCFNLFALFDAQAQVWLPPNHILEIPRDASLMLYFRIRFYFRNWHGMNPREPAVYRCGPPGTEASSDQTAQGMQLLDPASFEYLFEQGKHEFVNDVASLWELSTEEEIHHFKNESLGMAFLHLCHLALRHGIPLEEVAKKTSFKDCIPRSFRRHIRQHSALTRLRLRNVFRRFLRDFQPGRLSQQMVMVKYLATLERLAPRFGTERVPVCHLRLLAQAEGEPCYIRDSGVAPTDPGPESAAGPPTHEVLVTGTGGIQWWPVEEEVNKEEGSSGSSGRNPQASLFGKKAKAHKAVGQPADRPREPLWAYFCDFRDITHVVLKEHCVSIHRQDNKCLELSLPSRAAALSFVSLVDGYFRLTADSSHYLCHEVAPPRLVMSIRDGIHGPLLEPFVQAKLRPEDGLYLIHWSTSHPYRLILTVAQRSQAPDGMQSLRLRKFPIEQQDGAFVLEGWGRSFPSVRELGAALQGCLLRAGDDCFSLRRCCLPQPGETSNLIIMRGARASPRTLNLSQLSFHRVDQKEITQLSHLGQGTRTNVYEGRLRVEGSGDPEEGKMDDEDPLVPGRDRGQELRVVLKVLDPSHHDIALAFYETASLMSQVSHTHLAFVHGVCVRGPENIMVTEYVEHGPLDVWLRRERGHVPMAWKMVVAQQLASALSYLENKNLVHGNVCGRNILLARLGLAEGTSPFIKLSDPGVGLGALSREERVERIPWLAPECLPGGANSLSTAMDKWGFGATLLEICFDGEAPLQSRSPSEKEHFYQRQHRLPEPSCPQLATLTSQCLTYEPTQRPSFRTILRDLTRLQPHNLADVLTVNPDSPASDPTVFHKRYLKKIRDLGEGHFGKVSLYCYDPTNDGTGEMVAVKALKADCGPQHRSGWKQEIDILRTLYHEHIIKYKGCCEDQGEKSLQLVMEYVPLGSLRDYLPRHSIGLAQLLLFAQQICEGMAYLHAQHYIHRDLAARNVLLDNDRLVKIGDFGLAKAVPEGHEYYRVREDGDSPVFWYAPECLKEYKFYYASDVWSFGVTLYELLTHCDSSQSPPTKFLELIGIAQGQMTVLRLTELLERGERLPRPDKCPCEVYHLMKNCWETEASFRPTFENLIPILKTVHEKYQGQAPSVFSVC
Sequence of Human JAK2 (O60674 whole entry): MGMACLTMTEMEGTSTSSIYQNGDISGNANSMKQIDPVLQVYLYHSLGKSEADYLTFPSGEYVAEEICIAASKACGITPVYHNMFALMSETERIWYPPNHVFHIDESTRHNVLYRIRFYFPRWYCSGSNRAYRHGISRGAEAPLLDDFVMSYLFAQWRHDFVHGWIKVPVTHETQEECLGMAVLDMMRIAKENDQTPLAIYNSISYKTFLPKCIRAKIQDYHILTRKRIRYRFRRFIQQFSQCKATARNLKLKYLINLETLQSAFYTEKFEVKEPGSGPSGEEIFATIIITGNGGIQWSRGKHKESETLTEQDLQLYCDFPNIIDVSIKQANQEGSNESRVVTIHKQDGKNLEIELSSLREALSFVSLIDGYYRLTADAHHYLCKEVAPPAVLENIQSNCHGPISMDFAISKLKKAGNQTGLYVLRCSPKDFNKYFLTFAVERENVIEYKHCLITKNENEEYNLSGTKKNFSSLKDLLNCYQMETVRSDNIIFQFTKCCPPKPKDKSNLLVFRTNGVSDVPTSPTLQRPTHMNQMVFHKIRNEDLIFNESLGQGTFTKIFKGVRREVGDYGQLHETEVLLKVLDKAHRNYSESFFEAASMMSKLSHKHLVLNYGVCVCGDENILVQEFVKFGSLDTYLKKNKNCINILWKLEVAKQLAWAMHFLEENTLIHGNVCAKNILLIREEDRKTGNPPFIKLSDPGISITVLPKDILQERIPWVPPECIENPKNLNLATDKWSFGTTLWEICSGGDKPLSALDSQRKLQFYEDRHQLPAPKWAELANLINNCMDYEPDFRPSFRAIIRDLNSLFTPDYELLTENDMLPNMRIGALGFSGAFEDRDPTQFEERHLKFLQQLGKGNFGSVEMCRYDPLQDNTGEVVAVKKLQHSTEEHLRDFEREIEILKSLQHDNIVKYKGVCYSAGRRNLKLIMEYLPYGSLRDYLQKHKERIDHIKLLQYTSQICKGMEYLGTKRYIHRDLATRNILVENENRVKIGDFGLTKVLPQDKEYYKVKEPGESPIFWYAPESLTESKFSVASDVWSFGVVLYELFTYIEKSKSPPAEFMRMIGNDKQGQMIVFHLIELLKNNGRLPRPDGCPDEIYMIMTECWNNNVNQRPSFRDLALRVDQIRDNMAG
Sequence of Human JAK3 (P52333 whole entry): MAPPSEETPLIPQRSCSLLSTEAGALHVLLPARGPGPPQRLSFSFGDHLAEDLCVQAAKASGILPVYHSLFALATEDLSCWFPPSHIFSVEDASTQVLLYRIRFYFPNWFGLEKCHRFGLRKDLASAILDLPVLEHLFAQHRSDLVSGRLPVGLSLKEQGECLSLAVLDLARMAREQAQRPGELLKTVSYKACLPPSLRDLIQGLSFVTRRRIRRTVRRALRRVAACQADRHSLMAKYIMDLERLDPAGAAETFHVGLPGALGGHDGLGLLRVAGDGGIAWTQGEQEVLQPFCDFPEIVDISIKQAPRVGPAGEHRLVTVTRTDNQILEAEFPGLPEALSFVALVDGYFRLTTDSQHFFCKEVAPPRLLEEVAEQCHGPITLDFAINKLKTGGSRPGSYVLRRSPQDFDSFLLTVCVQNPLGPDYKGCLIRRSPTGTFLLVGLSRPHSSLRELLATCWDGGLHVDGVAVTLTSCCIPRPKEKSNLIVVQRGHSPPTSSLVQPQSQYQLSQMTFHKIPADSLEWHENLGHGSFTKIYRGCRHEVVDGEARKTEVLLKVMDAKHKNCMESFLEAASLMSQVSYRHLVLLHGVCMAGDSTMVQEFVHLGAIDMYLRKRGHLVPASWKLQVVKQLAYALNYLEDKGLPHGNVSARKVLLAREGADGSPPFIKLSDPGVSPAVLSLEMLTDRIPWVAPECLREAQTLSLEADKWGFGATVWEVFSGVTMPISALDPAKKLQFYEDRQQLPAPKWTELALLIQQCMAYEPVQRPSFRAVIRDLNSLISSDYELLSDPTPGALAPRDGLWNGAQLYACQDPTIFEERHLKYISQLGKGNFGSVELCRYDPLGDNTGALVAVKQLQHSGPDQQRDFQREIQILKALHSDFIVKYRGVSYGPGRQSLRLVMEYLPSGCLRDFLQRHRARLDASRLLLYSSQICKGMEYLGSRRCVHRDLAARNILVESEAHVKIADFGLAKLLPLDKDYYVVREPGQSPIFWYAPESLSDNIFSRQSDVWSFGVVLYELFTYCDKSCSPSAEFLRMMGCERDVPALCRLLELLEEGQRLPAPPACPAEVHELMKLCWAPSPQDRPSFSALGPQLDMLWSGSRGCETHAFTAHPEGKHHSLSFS
Sequence of Human JAK1 (P23458 whole entry): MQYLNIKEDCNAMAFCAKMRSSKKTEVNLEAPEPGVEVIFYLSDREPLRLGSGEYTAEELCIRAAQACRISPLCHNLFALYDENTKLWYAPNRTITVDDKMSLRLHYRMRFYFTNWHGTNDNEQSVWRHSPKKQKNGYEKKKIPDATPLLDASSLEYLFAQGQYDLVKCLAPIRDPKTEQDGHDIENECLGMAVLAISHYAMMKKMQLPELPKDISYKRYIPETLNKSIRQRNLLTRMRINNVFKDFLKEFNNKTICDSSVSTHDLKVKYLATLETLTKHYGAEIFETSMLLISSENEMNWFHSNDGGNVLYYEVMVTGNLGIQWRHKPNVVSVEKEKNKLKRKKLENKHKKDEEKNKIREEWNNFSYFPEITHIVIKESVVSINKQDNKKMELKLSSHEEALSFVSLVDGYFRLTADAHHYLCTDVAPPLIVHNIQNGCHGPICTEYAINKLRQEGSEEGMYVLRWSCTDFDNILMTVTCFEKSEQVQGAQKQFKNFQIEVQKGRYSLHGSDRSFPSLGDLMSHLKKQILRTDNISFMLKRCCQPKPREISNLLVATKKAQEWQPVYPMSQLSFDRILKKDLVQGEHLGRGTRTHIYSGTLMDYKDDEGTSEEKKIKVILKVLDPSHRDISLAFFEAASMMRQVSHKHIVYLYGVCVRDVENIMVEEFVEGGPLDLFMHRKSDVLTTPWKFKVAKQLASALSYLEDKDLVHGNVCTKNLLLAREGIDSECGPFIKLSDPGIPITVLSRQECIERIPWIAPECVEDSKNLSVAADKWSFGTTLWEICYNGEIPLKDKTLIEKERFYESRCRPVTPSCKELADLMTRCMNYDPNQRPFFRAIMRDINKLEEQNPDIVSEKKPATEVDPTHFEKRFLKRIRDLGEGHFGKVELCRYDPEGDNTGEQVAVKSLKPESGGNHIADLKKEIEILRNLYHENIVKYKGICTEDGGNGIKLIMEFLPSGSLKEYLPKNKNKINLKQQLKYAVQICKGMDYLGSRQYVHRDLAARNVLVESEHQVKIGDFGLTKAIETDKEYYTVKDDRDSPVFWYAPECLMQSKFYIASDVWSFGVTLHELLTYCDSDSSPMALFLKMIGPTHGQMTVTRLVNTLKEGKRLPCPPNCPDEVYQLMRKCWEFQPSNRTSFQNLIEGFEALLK

Compound	inhibition at 1 µM (Human TYK2) [%]	inhibition at 1 µM (Human JAK3) [%]	inhibition at 1 µM (Human JAK2) [%]	inhibition at 1 µM (Human JAK1) [%]
CN(c1ncnc2[nH]ccc12)[C@H]1CN(C(=O)CN=[N+]=[N-])CC12CC2 [Example 4, (R)-2-azido-1-(7-(methyl(7H-pyrrolo[2,3-d]pyrimidin-4-yl)amino)-5-azaspiro[2.4]heptan-5-yl)ethan-1-one]	78	57	72	95
CN(c1ncnc2[nH]ccc12)[C@H]1CN(C(=O)Nc2ccc(Cl)c(Cl)c2)CC12CC2 [Example 26, (R)-N-(3,4-dichlorophenyl)-7-(methyl(7H-pyrrolo[2,3-d]pyrimidin-4-yl)amino)-5-azaspiro[2.4]heptane-5-carboxamide]	42	51	13	94
CN(c1ncnc2[nH]ccc12)C1CN(C(=O)CN=[N+]=[N-])CC12CC2 (stereo not drawn) [Example 54, 2-azido-1-(7-(methyl(7H-pyrrolo[2,3-d]pyrimidin-4-yl)amino)-5-azaspiro[2.4]heptan-5-yl)ethan-1-one]	72	73	60	94
CN(c1ncnc2[nH]ccc12)[C@H]1CN(C(=O)Nc2ccc(Cl)cc2Cl)CC12CC2 [Example 25, (R)-N-(2,4-dichlorophenyl)-7-(methyl(7H-pyrrolo[2,3-d]pyrimidin-4-yl)amino)-5-azaspiro[2.4]heptane-5-carboxamide]	48	25	5	88
CN(c1ncnc2[nH]ccc12)[C@H]1CN(S(=O)(=O)c2cccc([N+](=O)[O-])c2)CC12CC2 [Example 44, (R)-N-methyl-N-(5-((3-nitrophenyl)sulfonyl)-5-azaspiro[2.4]heptan-7-yl)-7H-pyrrolo[2,3-d]pyrimidin-4-amine]	98	96	96	100
CN(c1ncnc2[nH]ccc12)[C@H]1CN(C(=O)c2ccc(C#N)cc2)CC12CC2 [Example 16, (R)-4-(7-(methyl(7H-pyrrolo[2,3-d]pyrimidin-4-yl)amino)-5-azaspiro[2.4]heptane-5-carbonyl)benzonitrile]	23	15	13	79
CCN1C[C@H](N(C)c2ncnc3[nH]ccc23)C2(CC2)C1 [Example 73, (R)-N-(5-ethyl-5-azaspiro[2.4]heptan-7-yl)-N-methyl-7H-pyrrolo[2,3-d]pyrimidin-4-amine]	-7	1	-6	42
CCCCNC(=O)N1C[C@H](N(C)c2ncnc3[nH]ccc23)C2(CC2)C1 [Example 21, (R)-N-butyl-7-(methyl(7H-pyrrolo[2,3-d]pyrimidin-4-yl)amino)-5-azaspiro[2.4]heptane-5-carboxamide]	30	31	-3	94
CN(c1ncnc2[nH]ccc12)C1CN(C(=O)Cn2ccnc2)CC12CC2 (stereo not drawn) [Example 59, 2-(1H-imidazol-1-yl)-1-(7-(methyl(7H-pyrrolo[2,3-d]pyrimidin-4-yl)amino)-5-azaspiro[2.4]heptan-5-yl)ethan-1-one]	-8	20	-17	72
CN(c1ncnc2[nH]ccc12)[C@H]1CN(S(=O)(=O)c2ccc(F)cc2)CC12CC2 [Example 39, (R)-N-(5-((4-fluorophenyl)sulfonyl)-5-azaspiro[2.4]heptan-7-yl)-N-methyl-7H-pyrrolo[2,3-d]pyrimidin-4-amine]	93	65	95	99
CN(c1ncnc2[nH]ccc12)[C@H]1CN(S(=O)(=O)c2ccc3ccccc3c2)CC12CC2 [Example 49, (R)-N-methyl-N-(5-(naphthalen-2-ylsulfonyI)-5-azaspiro[2.4]heptan-7-yl)-7H-pyrrolo[2,3-d]pyrimidin-4-amine]	75	55	65	98
CN(c1ncnc2[nH]ccc12)[C@H]1CN(S(=O)(=O)c2ccccc2)CC12CC2 [Example 36, (R)-N-methyl-N-(5-(phenylsulfonyl)-5-azaspiro[2.4]heptan-7-yl)-7H-pyrrolo[2,3-d]pyrimidin-4-amine]	91	52	90	97
CC(=O)N1CCC(C(=O)N2C[C@H](N(C)c3ncnc4[nH]ccc34)C3(CC3)C2)CC1 [Example 10, (R)-1-(4-(7-(methyl(7H-pyrrolo[2,3-d]pyrimidin-4-yl)amino)-5-azaspiro[2.4]heptane-5-carbonyl)piperidin-1-yl)ethan-1-one]	52	23	2	88
CN(c1ncnc2[nH]ccc12)[C@@H]1CN(C(=O)c2ccc(C#N)cc2)CC12CC2 [Example 68, (S)-4-(7-(methyl(7H-pyrrolo[2,3-d]pyrimidin-4-yl)amino)-5-azaspiro[2.4]heptane-5-carbonyl)benzonitrile]	2	-7	-5	14
CCCCCN1C[C@H](N(C)c2ncnc3[nH]ccc23)C2(CC2)C1 [Example 2, (R)-N-methyl-N-(5-pentyl-5-azaspiro[2.4]heptan-7-yl)-7H-pyrrolo[2,3-d]pyrimidin-4-amine]	3	7	-19	77
CN(c1ncnc2[nH]ccc12)[C@H]1CN(C(=O)Nc2cc(Cl)ccc2Cl)CC12CC2 [Example 27, (R)-N-(2,5-dichlorophenyl)-7-(methyl(7H-pyrrolo[2,3-d]pyrimidin-4-yl)amino)-5-azaspiro[2.4]heptane-5-carboxamide]	27	17	-1	91
CN(c1ncnc2[nH]ccc12)[C@H]1CN(S(=O)(=O)N2CCOCC2)CC12CC2 [Example 51, (R)-N-methyl-N-(5-(morpholinosulfonyl)-5-azaspiro[2.4]heptan-7-yl)-7H-pyrrolo[2,3-d]pyrimidin-4-amine]	69	49	60	97
CCS(=O)(=O)N1C[C@@H](N(C)c2ncnc3[nH]ccc23)C2(CC2)C1 [Example 71, (S)-N-(5-(ethylsulfonyl)-5-azaspiro[2.4]heptan-7-yl)-N-methyl-7H-pyrrolo[2,3-d]pyrimidin-4-amine]	12	-22	13	40
CN(c1ncnc2[nH]ccc12)[C@H]1CN(C(=O)c2cccc(C(F)(F)F)c2)CC12CC2 [Example 18, (R)-(7-(methyl(7H-pyrrolo[2,3-d]pyrimidin-4-yl)amino)-5-azaspiro[2.4]heptan-5-yl)(3-(trifluoromethyl)phenyl)methanone]	37	5	-17	71
Cc1ccc(NC(=O)N2C[C@H](N(C)c3ncnc4[nH]ccc34)C3(CC3)C2)cc1Cl [Example 29, (R)-N-(3-chloro-4-methylphenyl)-7-(methyl(7H-pyrrolo[2,3-d]pyrimidin-4-yl)amino)-5-azaspiro[2.4]heptane-5-carboxamide]	43	39	19	92
CC(C)S(=O)(=O)N1C[C@H](N(C)c2ncnc3[nH]ccc23)C2(CC2)C1 [Example 34, (R)-N-(5-(isopropylsulfonyl)-5-azaspiro[2.4]heptan-7-yl)-N-methyl-7H-pyrrolo[2,3-d]pyrimidin-4-amine]	72	56	76	97

Reference: patent publication US10081635B2, “Substituted N-(pyrrolidine-3-yl)-7H-pyrrolo[2,3-D]pyrimidine-4-amine as janus kinase inhibitor” (YANG JI CHEMICAL CO., LTD., priority 2014, dated 2018)
